Measurements taken from patent US9944598B2, “Mono- or di-substituted indole derivatives as dengue viral replication inhibitors” (priority 2014, dated 2018).

Assays:
Format in all cases: cell-based
[1] = in vitro; conditions: African green monkey
Description: The antiviral activity of the compounds of the invention was tested against DENV-1 strain TC974#666 (NCPV), DENV-2 strain 16681, DENV-3 strain H87 (NCPV) and DENV-4 strains H241 (NCPV) and EDEN (SG/06K2270DK1/2005; GenBank accession number QG398256) in a RT-qPCR assay. Therefore, Vero cells were infected with either DENV-1, or -2, or -3, or -4 in the presence or absence of test compounds. At day 3 post-infection, the cells were lysed and cell lysates were used to prepare cDNA of both a viral target (the 3′UTR of DENV; table 2) and a cellular reference gene (β-actin, table 2). Subsequently, a duplex real time PCR was performed on a Lightcycler480 instrument. The generated Cp value is inversely proportional to the amount of RNA expression of these targets. Inhibition of DENV replication by a test compound result in a shift of Cp's for the 3′UTR gene. On the other hand, if a test compound is toxic to the cells, a similar effect on β-actin expression will be observed. The comparative ΔΔCp method is used to calculate EC50, which is based on the relative gene expression of the target gene (3′UTR) normalized with the cellular housekeeping gene (β-actin). In addition, CC50 values were determined based on the Cp values acquired for the housekeeping gene β-actin.
The culture medium consisted of minimal essential medium supplemented with 2% of heat-inactivated fetal calf serum, 0.04% gentamycin (50 mg/mL) and 2 mM of L-glutamine. Vero cells, obtained from ECACC, were suspended in culture medium and 75 μL/well was added in 96-well plates (10000 cells/well), which already contain the antiviral compounds. Typically, these plates contain a 4-fold serial dilution of 9 dilution steps of the test compound at 200 times the final concentration in 100% DMSO (500 nL; final concentration range: 25 μM-0.00038 μM). In addition, each plate contains wells which are assigned as virus controls (containing cells and virus in the absence of compound) and cell controls (containing cells in the absence of virus and compound). Once the cells were added in the plates, the plates were incubated in a fully humidified incubator (37° C., 5% CO2) until the next day. Then, DENV-1 strain TC974#666, DENV-2 strain 16681, DENV-3 strain H87 or DENV-4 strains H241 or EDEN were added. […] In parallel, 25 μL of culture medium was added to the cell controls. Next, the plates were incubated for 3 days in a fully humidified incubator (37° C., 5% CO2). After 3 days, the supernatant was removed from the wells and the cells were washed twice with ice-cold PBS (˜100 μL). The cell pellets within the 96-well plates were stored at −80° C. for at least 1 day. Next, RNA was extracted using the Cells-to-CT™ lysis kit, according to the manufacture's guideline (Applied Biosystems). The cell lysates can be stored at −80° C. or immediately used in the reverse transcription step.
Using the LightCycler software and an in-house LIMS system, dose response curves for each compound were calculated and the half maximal effective concentration (EC50) and the half maximal cytotoxic concentration (CC50) were determined (Tables 6-9).

[2] = tested on: uninfected Vero cells; experiment: in vitro; conditions: African green monkey
Description: (§1) Potential cytotoxic effects of the compounds were evaluated in uninfected Vero cells. Cells were seeded at 4×10^4 cells/well in a 96-well plate in the presence of two-, three- or five-fold serial dilutions (ranging from 50 μg/mL-0.0038 μg/mL, 50 μg/mL-0.0076 μg/mL, and 50 μg/mL-0.00013 μg/mL, respectively) of compound and incubated for 4 to 7 days. Culture medium was discarded and 100 μL 3-(4,5-dimethylthiazol-2-yl)-5-(3-carboxymethoxyphenyl)-2-(4-sulfophenyl)-2H-tetrazolium/phenazinemethosulfate (MTS/PMS; Promega, Leiden, The Netherlands) in PBS was added to each well. Following a 2-hour incubation period at 37° C., the optical density was determined at 498 nm. Cytotoxic activity was calculated using the following formula: % cell viability=100×(ODCompound/ODCC), where ODCompound and ODCC correspond to the optical density at 498 nm of the uninfected cell cultures treated with compound and that of uninfected, untreated cell cultures, respectively. The 50% cytotoxic concentration (i.e., the concentration that reduces the total cell number with 50%; CC50) was calculated using linear interpolation (Tables 7 and 8).

[3] = in vitro; conditions: African green monkey, CC50
Description: as §1

Compound	CC50 at 3 days [1]	CC50 [2]	CC50 [3]
COc1cc(NC(C(=O)c2c[nH]c3c(C)cc(F)cc23)c2ccc(Cl)cc2OC)cc(OCCO)c1 (single isomer, unassigned) [Compound 8A, 2-(4-chloro-2-methoxyphenyl)-1-(5-fluoro-7-methyl-1H-indol-3-yl)-2-((3-(2-hydroxyethoxy)-5-methoxyphenyl)amino)ethanone]	3.5 µM	11 µM	7.7 µM
COc1cc(NC(C(=O)c2c[nH]c3cc(Cl)ccc23)c2ccc(Cl)cc2OC)cc(OCCO)c1 (single isomer, unassigned) [Compound 4A, 1-(6-chloro-1H-indol-3-yl)-2-(4-chloro-2-methoxyphenyl)-2-((3-(2-hydroxyethoxy)-5-methoxyphenyl)amino)ethanone]		13 µM	9.5 µM
COc1cc(NC(C(=O)c2c[nH]c3c(F)c(F)ccc23)c2ccc(Cl)cc2OC)cc(OCCO)c1 (single isomer, unassigned) [Compound 11B, 2-(4-chloro-2-methoxyphenyl)-1-(6,7-difluoro-1H-indol-3-yl)-2-((3-(2-hydroxyethoxy)-5-methoxyphenyl)amino)ethanone]	3.7 µM	11 µM	7.7 µM
COc1cc(NC(C(=O)c2c[nH]c3cc(OC)c(C)cc23)c2ccc(Cl)cc2OC)cc(OCCO)c1 (single isomer, unassigned) [Compound 6A, 2-(4-chloro-2-methoxyphenyl)-2-((3-(2-hydroxyethoxy)-5-methoxyphenyl)amino)-1-(6-methoxy-5-methyl-1H-indol-3-yl)ethanone]		13 µM	8.1 µM
COc1cc(NC(C(=O)c2c[nH]c3cc(OC)ccc23)c2ccc(Cl)cc2OC)cc(OCCO)c1 (single isomer, unassigned) [Compound 5A, 2-(4-chloro-2-methoxyphenyl)-2-((3-(2-hydroxyethoxy)-5-methoxyphenyl)amino)-1-(6-methoxy-1H-indol-3-yl)ethanone]	5.2 µM	11 µM	7.8 µM
COc1cc(NC(C(=O)c2c[nH]c3cc(OC)c(F)cc23)c2ccc(Cl)cc2OC)cc(OCCO)c1 (single isomer, unassigned) [Compound 7A, 2-(4-chloro-2-methoxyphenyl)-1-(5-fluoro-6-methoxy-1H-indol-3-yl)-2-((3-(2-hydroxyethoxy)-5-methoxyphenyl)amino)ethanone]	4.6 µM	12 µM	7.2 µM
COc1cc(NC(C(=O)c2c[nH]c3cc(F)c(F)cc23)c2ccc(Cl)cc2OC)cc(OCCO)c1 (single isomer, unassigned) [Compound 9A, 2-(4-chloro-2-methoxyphenyl)-1-(5,6-difluoro-1H-indol-3-yl)-2-((3-(2-hydroxyethoxy)-5-methoxyphenyl)amino)ethanone]	4.7 µM	12 µM	7.9 µM
COc1cc(NC(C(=O)c2c[nH]c3c(C)c(Cl)ccc23)c2ccc(Cl)cc2OC)cc(OCCO)c1 (single isomer, unassigned) [Compound 3A, 2-(4-chloro-2-methoxyphenyl)-1-(6-chloro-7-methyl-1H-indol-3-yl)-2-((3-(2-hydroxyethoxy)-5-methoxyphenyl)amino)ethanone]	3.8 µM	12 µM	7.7 µM
COc1cc(NC(C(=O)c2c[nH]c3c(C)c(F)ccc23)c2ccc(Cl)cc2OC)cc(OCCO)c1 (single isomer, unassigned) [Compound 2A, 2-(4-chloro-2-methoxyphenyl)-1-(6-fluoro-7-methyl-1H-indol-3-yl)-2-((3-(2-hydroxyethoxy)-5-methoxyphenyl)amino)ethanone]		13 µM	7.4 µM
COc1cc(NC(C(=O)c2c[nH]c3cc(F)ccc23)c2ccc(Cl)cc2OC)cc(OCCO)c1 (single isomer, unassigned) [Compound 1A, 2-(4-chloro-2-methoxyphenyl)-1-(6-fluoro-1H-indol-3-yl)-2-((3-(2-hydroxyethoxy)-5-methoxyphenyl)amino)ethanone]		14 µM	9.7 µM
COc1cc(NC(C(=O)c2c[nH]c3c(F)cc(C)cc23)c2ccc(Cl)cc2OC)cc(OCCO)c1 (single isomer, unassigned) [Compound 10A, 2-(4-chloro-2-methoxyphenyl)-1-(7-fluoro-5-methyl-1H-indol-3-yl)-2-((3-(2-hydroxyethoxy)-5-methoxyphenyl)amino)ethanone]	4.1 µM	12 µM	8 µM
